Consider 2 molecules from BindingDB's records for doi:10.1016/s0960-894x(98)00476-4 (University of Michigan, 1999).

pKi: −log10 of the molar value.

The test in a line: Binding affinity against Opioid receptor delta 1.

In the case of `CC1(C)SSC[C@@H](NC(=O)[C@@H](N)Cc2ccccc2)C(=O)N[C@@H](Cc2ccccc2)C(=O)N[C@H]1C(=O)O` [10-(2-Amino-3-phenyl-propionylamino)-7-benzyl-3,3-dimethyl-6,9-dioxo-1,2-dithia-5,8-diaza-cycloundecane-4-carboxylic acid], the pKi is 7.38. The same measure for `CC1(C)SCCSC[C@@H](NC(=O)[C@@H](N)Cc2ccccc2)C(=O)N[C@@H](Cc2ccccc2)C(=O)N[C@H]1C(N)=O` [12-(2-Amino-3-phenyl-propionylamino)-9-benzyl-5,5-dimethyl-8,11-dioxo-1,4-dithia-7,10-diaza-cyclotridecane-6-carboxylic acid amide]: 5.99.
